Laboratory results taken from patent publication US10829452B2, “Histone methyltransferase inhibitors” (GLOBAL BLOOD THERAPEUTICS, INC., priority 2016, dated 2020).
Where a name gives a salt, the structure may show the parent alone.

Biological target: T1, G9a (Homo sapiens, UniProt Q96KQ7)
T1 sequence (Q96KQ7 1-1210): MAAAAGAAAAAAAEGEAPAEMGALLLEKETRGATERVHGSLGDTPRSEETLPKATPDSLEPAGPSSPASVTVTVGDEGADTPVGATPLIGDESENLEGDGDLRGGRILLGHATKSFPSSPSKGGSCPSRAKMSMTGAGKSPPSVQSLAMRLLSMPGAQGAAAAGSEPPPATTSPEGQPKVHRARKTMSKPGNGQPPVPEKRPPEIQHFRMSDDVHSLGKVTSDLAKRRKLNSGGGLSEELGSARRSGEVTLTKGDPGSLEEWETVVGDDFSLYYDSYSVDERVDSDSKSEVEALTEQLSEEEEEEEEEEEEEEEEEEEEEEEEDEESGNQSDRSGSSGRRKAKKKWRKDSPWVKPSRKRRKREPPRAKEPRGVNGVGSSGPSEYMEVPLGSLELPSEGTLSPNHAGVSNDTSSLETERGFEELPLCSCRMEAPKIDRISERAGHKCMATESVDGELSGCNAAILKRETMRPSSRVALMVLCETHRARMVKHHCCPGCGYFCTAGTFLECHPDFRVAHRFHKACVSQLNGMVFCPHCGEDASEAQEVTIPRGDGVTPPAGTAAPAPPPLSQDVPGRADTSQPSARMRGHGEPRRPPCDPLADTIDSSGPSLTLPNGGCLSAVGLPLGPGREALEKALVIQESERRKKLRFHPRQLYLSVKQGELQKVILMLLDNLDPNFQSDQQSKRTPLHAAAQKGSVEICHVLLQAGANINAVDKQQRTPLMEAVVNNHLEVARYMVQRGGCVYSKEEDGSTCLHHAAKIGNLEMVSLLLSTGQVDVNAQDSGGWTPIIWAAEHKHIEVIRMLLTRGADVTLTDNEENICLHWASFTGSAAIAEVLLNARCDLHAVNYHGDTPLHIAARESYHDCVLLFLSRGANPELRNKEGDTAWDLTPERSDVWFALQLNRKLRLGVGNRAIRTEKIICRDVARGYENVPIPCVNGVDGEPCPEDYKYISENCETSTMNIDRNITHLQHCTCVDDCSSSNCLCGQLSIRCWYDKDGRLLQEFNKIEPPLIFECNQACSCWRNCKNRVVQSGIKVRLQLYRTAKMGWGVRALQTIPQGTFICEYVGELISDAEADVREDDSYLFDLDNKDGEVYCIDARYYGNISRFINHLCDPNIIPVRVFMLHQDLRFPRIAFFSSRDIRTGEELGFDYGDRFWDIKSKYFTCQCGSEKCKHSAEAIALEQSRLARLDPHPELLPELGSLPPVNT
Test: G9a AlphaLISA enzymatic activity assay
Format: biochemical
Settings: 0.15 nM G9a, 15 uM S-adenosyl-methionine, 100 nM biotinylated histone 3 peptide (1-21), 1 hour at room temperature; read-out: G9a in (uM) (IC50, concentration that produced 50% inhibition)
Method in brief: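 Human G9a (0.15 nM) methylated 100 nM biotinylated histone H3(1-21) peptide with 15 uM SAM in Tris-HCl pH9 buffer with NaCl, Tween-20 and DTT, 1 h at room temperature. H3K9me2 was detected by AlphaLISA acceptor/streptavidin donor beads (20 ug/mL each); IC50 from percent inhibition across compound dilutions.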

An IC50 of 0.5 µM was found for COc1cc2c3c(c(N[C@H]4C[C@H](O)C4)nc2cc1OCCCN1CCCC1)CCCC3 [Example 64, 3-({2-methoxy-3-[3-(pyrrolidin-1-yl)propoxy]-7,8,9,10-tetrahydrophenanthridin-6-yl}amino)cyclobutan-1-ol formate] in this work.

An IC50 of 0.74 µM was found for COc1cc2c3c(c(NCC(F)(F)F)nc2cc1OCCCN1CCCC1)CCC3 [Example 65, 8-methoxy-7-[3-(pyrrolidin-1-yl)propoxy]-N-(2,2,2-trifluoroethyl)-1H,2H,3H-cyclopenta[c]quinolin-4-amine formate] in this work.

An IC50 of 0.22 µM was found for COc1cc2c3c(c(NCCC(F)(F)F)nc2cc1OCCCN1CCCC1)CCC3 [Example 66, 8-methoxy-7-[3-(pyrrolidin-1-yl)propoxy]-N-(3,3,3-trifluoropropyl)-1H,2H,3H-cyclopenta[c]quinolin-4-amine] in this work.

An IC50 of 2 µM was found for COc1cc2c3c(c(NCC(F)(F)F)nc2cc1OCCCN1CCCC1)CCCC3 [Example 67, 2-methoxy-3-[3-(pyrrolidin-1-yl)propoxy]-N-(2,2,2-trifluoroethyl)-7,8,9,10-tetrahydrophenanthridin-6-amine formate] in this work.

An IC50 of 0.11 µM was found for COc1cc2c3c(c(NC(C)C)nc2cc1OCCCN1CCCC1)CC(O)CC3 (stereo not shown) [Example 68, 2-methoxy-6-[(propan-2-yl)amino]-3-[3-(pyrrolidin-1-yl)propoxy]-7,8,9,10-tetrahydrophenanthridin-8-ol trifluoroacetate] in this work.

An IC50 of over 10 µM was found for COc1cc2c3c(c(N(C)c4ccccc4)nc2cc1OCCCN1CCCC1)CCC3 [Example 69, 8-methoxy-N-methyl-N-phenyl-7-[3-(pyrrolidin-1-yl)propoxy]-1H,2H,3H-cyclopenta[c]quinolin-4-amine trifluoroacetate] in this work.

An IC50 of 1.1 µM was found for COc1cc2c3c(c(NC(C)C)nc2cc1OCCCN1CCCC1)CN(C)CC3 [Example 71, 9-methoxy-3-methyl-N-(propan-2-yl)-8-[3-(pyrrolidin-1-yl)propoxy]-1H,2H,3H,4H-benzo[c]2,7-naphthyridin-5-amine formate] in this work.

An IC50 of 1.9 µM was found for COc1cc2c3c(c(N(C)C4CCCC4)nc2cc1OCCCN1CCCC1)CCC3 [Example 73, N-cyclopentyl-8-methoxy-N-methyl-7-[3-(pyrrolidin-1-yl)propoxy]-1H,2H,3H-cyclopenta[c]quinolin-4-amine trifluoroacetate] in this work.

An IC50 of 0.015 µM was found for CCNc1nc2cc(OCCCN3CCCC3)c(OC)cc2c2c1CC(C)(C)C2 [Example 74, N-ethyl-8-methoxy-2,2-dimethyl-7-[3-(pyrrolidin-1-yl)propoxy]-1H,2H,3H-cyclopenta[c]quinolin-4-amine formate] in this work.

An IC50 of 0.014 µM was found for COc1cc2c3c(cnc2cc1OCCCN1CCCC1)CCC(C)(C)N3 [Example 75, 1-[3-({9-methoxy-2,2-dimethyl-1H,2H,3H,4H-benzo[h]1,6-naphthyridin-8-yl}oxy)propyl]pyrrolidine formate] in this work.

An IC50 of 0.013 µM was found for COc1cc2c3c(c(C4CC4)nc2cc1OCCCN1CCCC1)CCC(C)(C)N3 [Example 76, 1-[3-({5-cyclopropyl-9-methoxy-2,2-dimethyl-1H,2H,3H,4H-benzo[h]1,6-naphthyridin-8-yl}oxy)propyl]pyrrolidine formate] in this work.

An IC50 of 0.007 µM was found for COc1cc2c3c(c(C(C)C)nc2cc1OCCCN1CCCC1)CCC(C)(C)N3 [Example 77, 1-(3-{[9-methoxy-2,2-dimethyl-5-(propan-2-yl)-1H,2H,3H,4H-benzo[h]1,6-naphthyridin-8-yl]oxy}propyl)pyrrolidine formate] in this work.

An IC50 of 0.003 µM was found for COc1cc2c3c(c(C)nc2cc1OCCCN1CCCC1)CCC(C)(C)N3 [Example 78, 1-[3-({9-methoxy-2,2,5-trimethyl-1H,2H,3H,4H-benzo[h]1,6-naphthyridin-8-yl}oxy)propyl]pyrrolidine] in this work.

An IC50 of 0.003 µM was found for COc1cc2c3c(c(C4CCCC4)nc2cc1OCCCN1CCCC1)CCCCN3 [Example 79, 1-[3-({6-cyclopentyl-10-methoxy-1H,2H,3H,4H,5H-azepino[3,2-c]quinolin-9-yl}oxy)propyl]pyrrolidine triflate] in this work.

An IC50 of 0.009 µM was found for COc1cc2c3c(c(C4CC4)nc2cc1OCCCN1CCCC1)CCCCN3 [Example 80, 1-[3-({6-cyclopropyl-10-methoxy-1H,2H,3H,4H,5H-azepino[3,2-c]quinolin-9-yl}oxy)propyl]pyrrolidine trifluoroacetate] in this work.

An IC50 of 0.009 µM was found for COc1cc2c3c(c(C(C)C)nc2cc1OCCCN1CCCC1)CCCCN3 [Example 81, 1-(3-{[10-methoxy-6-(propan-2-yl)-1H,2H,3H,4H,5H-azepino[3,2-c]quinolin-9-yl]oxy}propyl)pyrrolidine trifluoroacetate] in this work.

An IC50 of 0.006 µM was found for COc1cc2c3c(c(C)nc2cc1OCCCN1CCCC1)CCCCN3 [Example 82, 1-[3-({10-methoxy-6-methyl-1H,2H,3H,4H,5H-azepino[3,2-c]quinolin-9-yl}oxy)propyl]pyrrolidine trifluoroacetate] in this work.

An IC50 of 0.009 µM was found for COc1cc2c3c(c(C4=CCCC4)nc2cc1OCCCN1CCCC1)CC(C)(C)N3 [Example 83, 1-(3-{[4-(cyclopent-1-en-1-yl)-8-methoxy-2,2-dimethyl-1H,2H,3H-pyrrolo[3,2-c]quinolin-7-yl]oxy}propyl)pyrrolidine] in this work.

An IC50 of 1.6 µM was found for CC(C)Nc1nc2cc(OCCCN3CCCC3)c(O)cc2c2c1CCC2 [Example 84, 4-[(propan-2-yl)amino]-7-[3-(pyrrolidin-1-yl)propoxy]-1H,2H,3H-cyclopenta[c]quinolin-8-ol trifluoroacetate] in this work.

An IC50 of 0.66 µM was found for COc1cc2c3c(c(NC(C)C)nc2cc1OCCCN1CCCCC1)CCC3 [Example 85, 8-methoxy-7-[3-(piperidin-1-yl)propoxy]-N-(propan-2-yl)-1H,2H,3H-cyclopenta[c]quinolin-4-amine formate] in this work.

An IC50 of over 10 µM was found for COc1cc2c3c(c(NC(C)C)nc2cc1OCCCN1CCC(C)(C)C1)CCC3 [Example 86, 7-[3-(3,3-dimethylpyrrolidin-1-yl)propoxy]-8-methoxy-N-(propan-2-yl)-1H,2H,3H-cyclopenta[c]quinolin-4-amine formate] in this work.

An IC50 of 0.15 µM was found for COc1cc2c3c(c(NCCC(C)C)nc2cc1OCCCN1CCCC1)CC(C)(C)C3 [Example 87, 8-methoxy-2,2-dimethyl-N-(3-methylbutyl)-7-[3-(pyrrolidin-1-yl)propoxy]-1H,2H,3H-cyclopenta[c]quinolin-4-amine formate] in this work.

An IC50 of 0.003 µM was found for COc1cc2c3c(c(N[C@@H](C)C4CC4)nc2cc1OCCCN1CCCC1)CCC3 [Example 88, N-[(1S)-1-cyclopropylethyl]-8-methoxy-7-[3-(pyrrolidin-1-yl)propoxy]-1H,2H,3H-cyclopenta[c]quinolin-4-amine formate] in this work.

An IC50 of 0.14 µM was found for COc1cc2c3c(c(N[C@H](C)C4CC4)nc2cc1OCCCN1CCCC1)CCC3 [Example 89, N-[(1R)-1-cyclopropylethyl]-8-methoxy-7-[3-(pyrrolidin-1-yl)propoxy]-1H,2H,3H-cyclopenta[c]quinolin-4-amine formate] in this work.

An IC50 of 0.6 µM was found for COc1cc2c3c(c(-c4coc(C)c4)nc2cc1OCCCN1CCCC1)CCC3 [Example 90, 1-(3-{[8-methoxy-4-(5-methylfuran-3-yl)-1H,2H,3H-cyclopenta[c]quinolin-7-yl]oxy}propyl)pyrrolidine formate] in this work.

An IC50 of 0.007 µM was found for CCCCNc1nc2cc(OCCCN3CCCC3)c(OC)cc2c2c1CC(C)(C)C2 [Example 91, N-butyl-8-methoxy-2,2-dimethyl-7-[3-(pyrrolidin-1-yl)propoxy]-1H,2H,3H-cyclopenta[c]quinolin-4-amine formate] in this work.

An IC50 of 0.059 µM was found for COc1cc2c3c(c(NC(C)C)nc2cc1OCCCN(C)C)CCC3 [Example 92, 7-[3-(dimethylamino)propoxy]-8-methoxy-N-(propan-2-yl)-1H,2H,3H-cyclopenta[c]quinolin-4-amine formate] in this work.

An IC50 of 0.39 µM was found for CCN(CC)CCCOc1cc2nc(NC(C)C)c3c(c2cc1OC)CCC3 [Example 93, 7-[3-(diethylamino)propoxy]-8-methoxy-N-(propan-2-yl)-1H,2H,3H-cyclopenta[c]quinolin-4-amine formate] in this work.
